According to ChEMBL document CHEMBL5260817, “Polyamine-based analogs and conjugates as antikinetoplastid agents” (Eur J Med Chem, 2017):
≈ marks a conversion by molar mass, not a printed value. One block for each molecule: values may come before it.

Key:
[1] = tested on: Trypanosoma cruzi; experiment: Antiprotozoal activity against Trypanosoma cruzi amastigotes; format: functional, organism-based
[2] = tested on: Trypanosoma cruzi; experiment: Antiprotozoal activity against Trypanosoma cruzi epimastigotes; format: functional, organism-based; conditions: Trypanosoma cruzi
[3] = tested on: Leishmania braziliensis; experiment: Antiprotozoal activity against Leishmania braziliensis promastigotes; format: functional, organism-based
[4] = tested on: Leishmania braziliensis; experiment: Antiprotozoal activity against Leishmania braziliensis amastigotes; format: functional, organism-based
[5] = tested on: Leishmania chagasi; experiment: Antiprotozoal activity against Leishmania chagasi amastigotes; format: functional, organism-based
[6] = tested on: Trypanosoma cruzi; experiment: Antiprotozoal activity against Trypanosoma cruzi infected in Rhesus monkey LLC-MK2 cells; format: functional, organism-based
[7] = tested on: Leishmania mexicana; experiment: Antiprotozoal activity against Leishmania mexicana infected in mouse J774 cells; format: functional, organism-based
[8] = tested on: Trypanosoma cruzi; experiment: Antiprotozoal activity against Trypanosoma cruzi infected in human Red blood cell; format: functional, organism-based; conditions: Erythrocyte
[9] = Inhibition of Trypanosoma MetRS
[10] = tested on: Trypanosoma brucei; experiment: Antiprotozoal activity against Trypanosoma brucei; format: functional, organism-based
[11] = Inhibition of Trypanosoma brucei MetRS
[12] = tested on: Syrian golden hamster; experiment: In vivo antiprotozoal activity against Leishmania donovani amastigotes in hamster spleen assessed as reduction of amastigotes count measured after 7 days relative to control; format: functional, Mesocricetus auratus; conditions: time 7 day
[13] = tested on: Leishmania donovani; experiment: Antiprotozoal activity against Leishmania donovani promastigote assessed as lethality at 10 uM relative to control; format: functional
[14] = tested on: Trypanosoma brucei; experiment: Antiprotozoal activity against Trypanosoma brucei […] assessed as lethality at 10 uM relative to control; format: functional
[15] = molecular target: T1, Trypanothione reductase (Trypanosoma cruzi, UniProt P28593); experiment: Inhibition of Trypanosoma cruzi TryR assessed as inhibition constant
[16] = tested on: Trypanosoma cruzi; experiment: Antiprotozoal activity against Trypanosoma cruzi epimastigote at 10 uM relative to control; format: functional
[17] = tested on: Trypanosoma brucei rhodesiense; experiment: Antiprotozoal activity against Trypanosoma brucei rhodesiense; format: functional, organism-based
[18] = tested on: Trypanosoma brucei; experiment: Antitrypanosomal activity against bloodstream Trypanosoma brucei assessed as parasite growth inhibition; format: functional, organism-based
[19] = tested on: Trypanosoma cruzi; experiment: Antiprotozoal activity against Trypanosoma cruzi trypomastigotes assessed as growth inhibition at 1.6 uM relative to control; format: functional
[20] = Inhibition of Trypanosoma brucei His tagged TryS in presence of ATP by LDH/PK assay
[21] = molecular target: Trypanothione synthetase (Crithidia fasciculata, UniProt O60993); experiment: Inhibition of Crithidia fasciculata His tagged TryS in presence of ATP by LDH/PK assay
[22] = Inhibition of Leishmania infantum His tagged TryS in presence of ATP by LDH/PK assay
[23] = tested on: Leishmania infantum; experiment: Antiprotozoal activity against Leishmania infantum; format: functional, organism-based
[24] = tested on: Leishmania donovani; experiment: Antiprotozoal activity against Leishmania donovani promastigote at 10 uM relative to control; format: functional
[25] = tested on: Trypanosoma cruzi; experiment: Antiprotozoal activity against Trypanosoma cruzi amastigotes infected in mouse Peritoneal macrophage cells assessed as growth inhibition at 1.56 uM relative to control; format: functional
[26] = tested on: HepG2; experiment: Anticancer activity against human HepG2 cells assessed as cell growth inhibition; format: functional, cell-based
[27] = Anticancer activity against human CRL-8155 cells assessed as cell growth inhibition; format: functional, cell-based; conditions: CRL8155
[28] = tested on: Trypanosoma brucei; experiment: Antiprotozoal activity against Trypanosoma […] STIB900 strain; format: functional, organism-based
[29] = Inhibition of Fulllength Trypanosoma brucei MetRS expressed in Escherichia coli in presence of ATP
[30] = molecular target: T1, Trypanothione reductase; experiment: Inhibition of Trypanosoma cruzi TryR expressed in escherichia coli SG5
[31] = tested on: Leishmania infantum; experiment: Antiprotozoal activity against Leishmania infantum MHOM/MA671TMAP263 axenic amastigotes assessed as growth inhibition measured after 5 day by MTT assay; format: functional, organism-based; conditions: 120 h
[32] = tested on: Leishmania infantum; experiment: Antiprotozoal activity against Leishmania infantum MHOM/MA671TMAP263 promastigote assessed as growth inhibition measured after 5 day by MTT assay; format: functional, organism-based; conditions: MHOM/MA671TMAP263, 120 h
[33] = Inhibition of TryR (unknown origin) assessed as inhibition constant; parameters: species or system Bacteria
[34] = Inhibition of TryR (unknown origin) assessed as inhibition constant by FRET assay
[35] = tested on: Leishmania infantum; experiment: Leishmanicidal activity against Leishmania infantum MCAN/ES/2001/UCM-10; format: functional, organism-based
[36] = tested on: Leishmania donovani; experiment: Leishmanicidal activity against Leishmania donovani MHOM/PE/84/LC26; format: functional, organism-based
[37] = tested on: Leishmania braziliensis; experiment: Leishmanicidal activity against Leishmania braziliensis MHOM/BR/1975/M2904; format: functional, organism-based
[38] = tested on: Trypanosoma cruzi; experiment: Antiprotozoal activity against Trypanosoma cruzi measured after 24 hrs; format: functional, organism-based
[39] = tested on: Trypanosoma cruzi; experiment: Antiprotozoal activity against Trypanosoma cruzi infected in mouse assessed as survival rate at 10 mg/kg, po administered 3 times daily on day 6 and 7 then twice daily from day 8 to 12; format: functional; conditions: time 7 day
[40] = tested on: Trypanosoma cruzi; experiment: Antiprotozoal activity against Trypanosoma cruzi infected in mouse Peritoneal macrophage cell assessed as growth inhibition at 1.6 uM measured after 4 days relative to control; format: functional; conditions: 96 h, time 4 day
[41] = tested on: MRC5; experiment: Anticancer activity against human MRC5 cells assessed as cell growth inhibition measured after 24 hrs by MTT assay; format: functional, cell-based; conditions: MRC5, 24 h

T1 sequence (P28593 whole entry): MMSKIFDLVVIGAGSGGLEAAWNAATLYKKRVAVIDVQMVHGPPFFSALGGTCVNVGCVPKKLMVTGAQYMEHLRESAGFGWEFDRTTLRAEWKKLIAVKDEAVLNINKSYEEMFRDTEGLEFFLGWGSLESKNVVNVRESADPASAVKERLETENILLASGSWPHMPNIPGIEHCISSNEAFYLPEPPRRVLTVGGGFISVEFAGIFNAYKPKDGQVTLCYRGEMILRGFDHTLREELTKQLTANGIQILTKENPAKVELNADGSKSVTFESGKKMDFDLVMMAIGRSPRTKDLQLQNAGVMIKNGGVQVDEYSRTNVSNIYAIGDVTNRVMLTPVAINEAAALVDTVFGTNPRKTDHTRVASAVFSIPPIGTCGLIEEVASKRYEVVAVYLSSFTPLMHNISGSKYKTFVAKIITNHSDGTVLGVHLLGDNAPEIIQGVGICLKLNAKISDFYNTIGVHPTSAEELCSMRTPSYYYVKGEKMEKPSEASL
Trypanothione synthetase, sequence (O60993 whole entry): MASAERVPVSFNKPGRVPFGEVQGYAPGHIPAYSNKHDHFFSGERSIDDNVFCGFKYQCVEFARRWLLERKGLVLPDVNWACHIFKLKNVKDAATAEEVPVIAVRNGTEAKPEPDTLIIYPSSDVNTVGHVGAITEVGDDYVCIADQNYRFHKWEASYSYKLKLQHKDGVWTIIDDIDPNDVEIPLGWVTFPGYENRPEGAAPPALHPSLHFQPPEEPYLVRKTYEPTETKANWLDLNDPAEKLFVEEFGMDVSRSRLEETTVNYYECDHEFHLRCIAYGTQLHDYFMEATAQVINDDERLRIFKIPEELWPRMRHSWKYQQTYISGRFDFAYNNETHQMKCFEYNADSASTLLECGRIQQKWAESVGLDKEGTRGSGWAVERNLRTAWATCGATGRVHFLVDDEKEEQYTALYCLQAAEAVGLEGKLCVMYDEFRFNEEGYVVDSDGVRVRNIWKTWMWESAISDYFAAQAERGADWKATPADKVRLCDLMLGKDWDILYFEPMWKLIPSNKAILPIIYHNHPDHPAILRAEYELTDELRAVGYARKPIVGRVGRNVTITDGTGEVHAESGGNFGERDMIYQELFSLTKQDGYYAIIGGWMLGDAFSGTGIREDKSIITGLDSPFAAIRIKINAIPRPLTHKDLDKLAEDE

SMILES: COC(=O)/N=C(\NCCCN1CCOCC1)NC(=O)OC
inhibition (INH) [12]: 80%

SMILES: COc1ccc2nc3cc(Cl)ccc3c(NCCNCCCNCCNc3c4ccc(Cl)cc4nc4ccc(OC)cc34)c2c1
Activity [13]: 99% | Activity [14]: 99%

SMILES: C1CCC(CCCNCCCN2CCN(CCCNCCCC3CCCCC3)CC2)CC1
inhibition at 1.6 µM [19]: 70%

SMILES: COc1ccc2nc3cc(Cl)ccc3c(NCCCCCCCCNc3c4ccc(Cl)cc4nc4ccc(OC)cc34)c2c1
inhibition at 10 µM [24]: 99% | inhibition at 1.56 µM [25]: 70%

SMILES: O=C1c2cccc3cccc(c23)C(=O)N1CCCNCCCNCCCCNCCCNCCCN1C(=O)c2cccc3cccc(c23)C1=O
IC50 [31]: 12.3 µM | IC50 [32]: 7.56 µM

SMILES: CN(CCCNc1c(NCCC[N+](C)(C)C)c(=O)c1=O)CCCNc1c(NCCC[N+](C)(C)C)c(=O)c1=O
IC50 [35]: > 15 µM | IC50 [36]: > 15 µM | IC50 [37]: > 15 µM

SMILES: CN(C)CCCN1CCN(C(=O)Cc2ccccc2)CC1
Activity [39]: 90%

SMILES: Clc1ccc(CNCCCN2CCN(CCCNCc3ccc(Cl)cc3)CC2)cc1
inhibition at 1.6 µM [40]: 95% | IC50 [41]: 4.5 µM

Now from value to molecule, other results behind:

IC50 [1]: 10 µM | IC50 [2]: 10 µM | IC50 [3]: 10 µM | IC50 [4]: 10 µM | IC50 [5]: 10 µM
SMILES: CCCCCCCCCCNCCCCCCN

IC50 [6]: 0.5 µM | IC50 [7]: 0.01 µM | IC50 [8]: 80 µM
SMILES: CC(C)=CCC/C(C)=C/CNCCNC1C2CC3CC(C2)CC1C3 (configuration not stated) [SQ109]

Ki [9]: 0.002 µM | IC50 [10]: 0.0004 µM | Ki [11]: 0.002 µM
SMILES: Fc1ccc2[nH]c(NCCCN[C@@H]3CCNc4c(Cl)cc(Cl)cc43)nc2n1
IC50 [11]: 0.002 µM

Ki [15]: 27 µM | IC50 [17]: 0.98 µM
SMILES: CN1CCN(CCCNc2cc(Cl)ccc2Sc2ccccc2)CC1
inhibition at 10 µM [16]: 85%

IC50 [18]: 24 µM
SMILES: Nc1nc(N)nc(NCCCNCCCCCCCNCCCNCCCNc2nc(N)nc(N)n2)n1

IC50 [21]: 0.03 µM | IC50 [22]: 0.15 µM | IC50 [23]: 12.6 µM
SMILES: CNCCNC(=O)CN1C(=O)Cc2c([nH]c3ccc(Br)cc23)-c2ccc(Cl)cc21
IC50 [20]: 59 µM

IC50 [26]: 13 µM | IC50 [28]: 0.2 µM
SMILES: O=C(NCCCNCc1cc(Cl)cc(Cl)c1)Nc1ccsc1
IC50 [27]: 0.2 µM | IC50 [29]: 0.028 µM

IC50 [30]: 1 µM
SMILES: NCCCCN(CCCN)CCCNc1cc(Cl)ccc1Sc1ccccc1

Ki [33]: 0.75 µM | Ki [34]: 0.75 µM
SMILES: O=C(NCCCNCCCCNCCCNC(=O)c1cnc2cc(C(F)(F)F)ccc2c1O)c1cnc2cc(C(F)(F)F)ccc2c1O

IC50 [38]: 31.2 µg/mL (≈ 128 µM)
SMILES: CCCCCCCCCCC(O)CNCCN (configuration not stated)
